Measured values published in ChEMBL document CHEMBL3885881, “DrugMatrix”.

Species on record: Rattus norvegicus
Assay: DrugMatrix - Regimen: Daily Repeat
Assay type: toxicity, organism-based, Sprague-Dawley
Set-up: regimen Daily Repeat, gender Male, age 6-8 weeks
Details: in vivo, po, route oral GAVAGE, vehicle 100 % WATER; for ABSOLUTE BASOPHIL / ABSOLUTE EOSINOPHIL / ABSOLUTE LYMPHOCYTE / ABSOLUTE MONOCYTE / ABSOLUTE SEGMENTED NEUTROPHIL / BASOPHIL / EOSINOPHIL / ERYTHROCYTE COUNT / HEMATOCRIT / HEMOGLOBIN / LEUKOCYTE COUNT / LYMPHOCYTE / MEAN CORPUSCULAR HEMOGLOBIN / MEAN CORPUSCULAR HEMOGLOBIN CONCENTRATION / MEAN CORPUSCULAR VOLUME / MONOCYTE / NEUTROPHIL / NUCLEATED RED BLOOD CELLS / PLATELET COUNT: tissue Blood; for ALANINE AMINOTRANSFERASE / ALBUMIN / ALKALINE PHOSPHATASE / ASPARTATE AMINOTRANSFERASE / BLOOD UREA NITROGEN / CARBON DIOXIDE / CHLORIDE / CHOLESTEROL / CREATINE PHOSPHOKINASE / CREATININE / GLUCOSE / LACTATE DEHYDROGENASE / LIPASE / PHOSPHORUS / SODIUM / TOTAL BILIRUBIN / TOTAL PROTEIN / URIC ACID: tissue Plasma
[1] = 200 mg/kg, 120 h, dose level Low, time 5 day
[2] = 1100 mg/kg, 72 h, dose level High, time 3 day
[3] = 1100 mg/kg, 120 h, dose level High, time 5 day

CC1(C)S[C@@H]2[C@H](NC(=O)[C@H](N)c3ccc(O)cc3)C(=O)N2[C@H]1C(=O)O [AMOXICILLIN]
ABSOLUTE BASOPHIL [1]: 0 CELLS/uL
ABSOLUTE EOSINOPHIL [1]: 0 CELLS/uL
ABSOLUTE LYMPHOCYTE [1]: 6222 CELLS/uL
ABSOLUTE MONOCYTE [1]: 124 CELLS/uL
ABSOLUTE SEGMENTED NEUTROPHIL [1]: 487.33 CELLS/uL
BASOPHIL [1]: 0%
EOSINOPHIL [1]: 0%
ERYTHROCYTE COUNT [1]: 5.52 x10E6/uL
HEMATOCRIT [1]: 34.17%
HEMOGLOBIN [1]: 13.17 G/DL
LEUKOCYTE COUNT [1]: 6.83 x10E3/uL
LYMPHOCYTE [1]: 90.67%
MEAN CORPUSCULAR HEMOGLOBIN [1]: 23.87 pg
MEAN CORPUSCULAR HEMOGLOBIN CONCENTRATION [1]: 38.53 G/DL
MEAN CORPUSCULAR VOLUME [1]: 61.87 fL
MONOCYTE [1]: 2%
NEUTROPHIL [1]: 7.33%
NUCLEATED RED BLOOD CELLS [1]: 0 /100WBC
PLATELET COUNT [1]: 1169.67 x10E3/uL
ALANINE AMINOTRANSFERASE [1]: 61.67 u/L
ALBUMIN [1]: 4.07 G/DL
ALKALINE PHOSPHATASE [1]: 419.67 u/L
ASPARTATE AMINOTRANSFERASE [1]: 85.33 u/L
BLOOD UREA NITROGEN [1]: 19 mg/dL
CARBON DIOXIDE [1]: 35 mmol/L
CHLORIDE [1]: 99.33 MEQ/L
CHOLESTEROL [1]: 64.33 mg/dL
CREATINE PHOSPHOKINASE [1]: 366.67 u/L
CREATININE [1]: 0.22 mg/dL
GLUCOSE [1]: 133.67 mg/dL
LACTATE DEHYDROGENASE [1]: 112.33 u/L
LIPASE [1]: 9 u/L
PHOSPHORUS [1]: 11.07 mg/dL
SODIUM [1]: 143.8 MEQ/L
TOTAL BILIRUBIN [1]: 0.17 mg/dL
TOTAL PROTEIN [1]: 6.17 G/DL
URIC ACID [1]: 0.73 mg/dL
ABSOLUTE BASOPHIL [2]: 0 CELLS/uL
ABSOLUTE EOSINOPHIL [2]: 0 CELLS/uL
ABSOLUTE LYMPHOCYTE [2]: 13682.33 CELLS/uL
ABSOLUTE MONOCYTE [2]: 492.67 CELLS/uL
ABSOLUTE SEGMENTED NEUTROPHIL [2]: 958.33 CELLS/uL
BASOPHIL [2]: 0%
EOSINOPHIL [2]: 0%
ERYTHROCYTE COUNT [2]: 6.16 x10E6/uL
HEMATOCRIT [2]: 39.43%
HEMOGLOBIN [2]: 14.47 G/DL
LEUKOCYTE COUNT [2]: 15.13 x10E3/uL
LYMPHOCYTE [2]: 90%
MEAN CORPUSCULAR HEMOGLOBIN [2]: 23.5 pg
MEAN CORPUSCULAR HEMOGLOBIN CONCENTRATION [2]: 36.7 G/DL
MEAN CORPUSCULAR VOLUME [2]: 64.03 fL
MONOCYTE [2]: 3.33%
NEUTROPHIL [2]: 6.67%
NUCLEATED RED BLOOD CELLS [2]: 0 /100WBC
PLATELET COUNT [2]: 1311.33 x10E3/uL
ALANINE AMINOTRANSFERASE [2]: 52.33 u/L
ALBUMIN [2]: 4.43 G/DL
ALKALINE PHOSPHATASE [2]: 365.33 u/L
ASPARTATE AMINOTRANSFERASE [2]: 83 u/L
BLOOD UREA NITROGEN [2]: 16.33 mg/dL
CARBON DIOXIDE [2]: 32 mmol/L
CHLORIDE [2]: 101.33 MEQ/L
CHOLESTEROL [2]: 79.67 mg/dL
CREATINE PHOSPHOKINASE [2]: 343 u/L
CREATININE [2]: 0.2 mg/dL
GLUCOSE [2]: 138 mg/dL
LACTATE DEHYDROGENASE [2]: 129.67 u/L
LIPASE [2]: 9.33 u/L
PHOSPHORUS [2]: 12.4 mg/dL
SODIUM [2]: 142.9 MEQ/L
TOTAL BILIRUBIN [2]: 0.17 mg/dL
TOTAL PROTEIN [2]: 6.17 G/DL
URIC ACID [2]: 2.13 mg/dL
ABSOLUTE BASOPHIL [3]: 0 CELLS/uL
ABSOLUTE EOSINOPHIL [3]: 0 CELLS/uL
ABSOLUTE LYMPHOCYTE [3]: 7076 CELLS/uL
ABSOLUTE MONOCYTE [3]: 76 CELLS/uL
ABSOLUTE SEGMENTED NEUTROPHIL [3]: 448 CELLS/uL
BASOPHIL [3]: 0%
EOSINOPHIL [3]: 0%
ERYTHROCYTE COUNT [3]: 6.01 x10E6/uL
HEMATOCRIT [3]: 37.2%
HEMOGLOBIN [3]: 14.1 G/DL
LEUKOCYTE COUNT [3]: 7.6 x10E3/uL
LYMPHOCYTE [3]: 92.33%
MEAN CORPUSCULAR HEMOGLOBIN [3]: 23.5 pg
MEAN CORPUSCULAR HEMOGLOBIN CONCENTRATION [3]: 37.9 G/DL
MEAN CORPUSCULAR VOLUME [3]: 61.93 fL
MONOCYTE [3]: 1%
NEUTROPHIL [3]: 6.67%
NUCLEATED RED BLOOD CELLS [3]: 0 /100WBC
PLATELET COUNT [3]: 1145.67 x10E3/uL
ALANINE AMINOTRANSFERASE [3]: 59.33 u/L
ALBUMIN [3]: 4.43 G/DL
ALKALINE PHOSPHATASE [3]: 434 u/L
ASPARTATE AMINOTRANSFERASE [3]: 94.33 u/L
BLOOD UREA NITROGEN [3]: 17.33 mg/dL
CARBON DIOXIDE [3]: 33 mmol/L
CHLORIDE [3]: 100.33 MEQ/L
CHOLESTEROL [3]: 75 mg/dL
CREATINE PHOSPHOKINASE [3]: 622.67 u/L
CREATININE [3]: 0.12 mg/dL
GLUCOSE [3]: 113 mg/dL
LACTATE DEHYDROGENASE [3]: 161.33 u/L
LIPASE [3]: 9 u/L
PHOSPHORUS [3]: 10.27 mg/dL
SODIUM [3]: 144.67 MEQ/L
TOTAL BILIRUBIN [3]: 0.13 mg/dL
TOTAL PROTEIN [3]: 5.67 G/DL
URIC ACID [3]: 0.8 mg/dL
